From ChEMBL document CHEMBL2429768, “Eco-friendly synthesis and antimicrobial activities of substituted-5-(1H-indol-3-yl)methylene)-2,2-dimethyl-1,3-dioxane-4,6-dione derivatives” (2013)
Values after ≈ are worked out from the molar mass of the structure shown.

How the values were obtained:
Format in all cases: functional
[1] = tested on: Aspergillus flavus; assay: Antifungal activity against Aspergillus flavus at 100 ug/ml after 72 hrs by agar well diffusion method; settings: read-out: DIZ
[2] = tested on: Staphylococcus aureus; assay: Antibacterial activity against Staphylococcus aureus ATCC 6538 at 50 ug/ml after 24 hrs by agar well diffusion method; settings: ATCC 6538, 24 h, read-out: DIZ
[3] = tested on: Bacillus subtilis; assay: Antibacterial activity against Bacillus subtilis after 24 hrs by agar well diffusion method
[4] = tested on: Fusarium oxysporum; assay: Antifungal activity against Fusarium oxysporum at 500 ug/ml after 72 hrs by agar well diffusion method; settings: read-out: DIZ
[5] = tested on: Bacillus subtilis; assay: Antibacterial activity against Bacillus subtilis at 200 ug/ml after 24 hrs by agar well diffusion method; settings: read-out: DIZ
[6] = tested on: Aspergillus flavus; assay: Antifungal activity against Aspergillus flavus at 50 ug/ml after 72 hrs by agar well diffusion method; settings: read-out: DIZ
[7] = tested on: Escherichia coli; assay: Antibacterial activity against Escherichia coli ATCC 8739 at 200 ug/ml after 24 hrs by agar well diffusion method; settings: ATCC 8739, 24 h, read-out: DIZ
[8] = tested on: Aspergillus niger; assay: Antifungal activity against Aspergillus niger at 200 ug/ml after 72 hrs by agar well diffusion method; settings: read-out: DIZ
[9] = tested on: Staphylococcus aureus; assay: Antibacterial activity against Staphylococcus aureus ATCC 6538 at 300 ug/ml after 24 hrs by agar well diffusion method; settings: ATCC 6538, 24 h, read-out: DIZ
[10] = tested on: Klebsiella pneumoniae; assay: Antibacterial activity against Klebsiella pneumoniae at 50 ug/ml after 24 hrs by agar well diffusion method; settings: read-out: DIZ
[11] = tested on: Klebsiella pneumoniae; assay: Antibacterial activity against Klebsiella pneumoniae after 24 hrs by agar well diffusion method
[12] = tested on: Klebsiella pneumoniae; assay: Antibacterial activity against Klebsiella pneumoniae at 500 ug/ml after 24 hrs by agar well diffusion method; settings: read-out: DIZ
[13] = tested on: Aspergillus flavus; assay: Antifungal activity against Aspergillus flavus after 72 hrs by agar well diffusion method
[14] = tested on: Bacillus subtilis; assay: Antibacterial activity against Bacillus subtilis at 100 ug/ml after 24 hrs by agar well diffusion method; settings: read-out: DIZ
[15] = tested on: Escherichia coli; assay: Antibacterial activity against Escherichia coli ATCC 8739 at 100 ug/ml after 24 hrs by agar well diffusion method; settings: ATCC 8739, 24 h, read-out: DIZ
[16] = tested on: Rhizoctonia solani; assay: Antifungal activity against Rhizoctonia solani at 500 ug/ml after 72 hrs by agar well diffusion method; settings: read-out: DIZ
[17] = tested on: Fusarium oxysporum; assay: Antifungal activity against Fusarium oxysporum at 200 ug/ml after 72 hrs by agar well diffusion method; settings: read-out: DIZ
[18] = tested on: Rhizoctonia solani; assay: Antifungal activity against Rhizoctonia solani at 50 ug/ml after 72 hrs by agar well diffusion method; settings: read-out: DIZ
[19] = tested on: Staphylococcus aureus; assay: Antibacterial activity against Staphylococcus aureus ATCC 6538 at 100 ug/ml after 24 hrs by agar well diffusion method; settings: ATCC 6538, 24 h, read-out: DIZ
[20] = tested on: Bacillus subtilis; assay: Antibacterial activity against Bacillus subtilis at 500 ug/ml after 24 hrs by agar well diffusion method; settings: read-out: DIZ
[21] = tested on: Aspergillus flavus; assay: Antifungal activity against Aspergillus flavus at 300 ug/ml after 72 hrs by agar well diffusion method; settings: read-out: DIZ
[22] = tested on: Rhizoctonia solani; assay: Antifungal activity against Rhizoctonia solani at 100 ug/ml after 72 hrs by agar well diffusion method; settings: read-out: DIZ
[23] = tested on: Aspergillus flavus; assay: Antifungal activity against Aspergillus flavus at 200 ug/ml after 72 hrs by agar well diffusion method; settings: read-out: DIZ
[24] = tested on: Klebsiella pneumoniae; assay: Antibacterial activity against Klebsiella pneumoniae at 300 ug/ml after 24 hrs by agar well diffusion method; settings: read-out: DIZ
[25] = tested on: Staphylococcus aureus; assay: Antibacterial activity against Staphylococcus aureus ATCC 6538 after 24 hrs by agar well diffusion method; settings: ATCC 6538, 24 h
[26] = tested on: Aspergillus niger; assay: Antifungal activity against Aspergillus niger at 50 ug/ml after 72 hrs by agar well diffusion method; settings: read-out: DIZ
[27] = tested on: Aspergillus niger; assay: Antifungal activity against Aspergillus niger after 72 hrs by agar well diffusion method
[28] = tested on: Staphylococcus aureus; assay: Antibacterial activity against Staphylococcus aureus ATCC 6538 at 500 ug/ml after 24 hrs by agar well diffusion method; settings: ATCC 6538, 24 h, read-out: DIZ
[29] = tested on: Escherichia coli; assay: Antibacterial activity against Escherichia coli ATCC 8739 at 300 ug/ml after 24 hrs by agar well diffusion method; settings: ATCC 8739, 24 h, read-out: DIZ
[30] = tested on: Aspergillus flavus; assay: Antifungal activity against Aspergillus flavus at 500 ug/ml after 72 hrs by agar well diffusion method; settings: read-out: DIZ
[31] = tested on: Rhizoctonia solani; assay: Antifungal activity against Rhizoctonia solani at 200 ug/ml after 72 hrs by agar well diffusion method; settings: read-out: DIZ
[32] = tested on: Escherichia coli; assay: Antibacterial activity against Escherichia coli ATCC 8739 after 24 hrs by agar well diffusion method; settings: ATCC 8739, 24 h
[33] = tested on: Fusarium oxysporum; assay: Antifungal activity against Fusarium oxysporum at 300 ug/ml after 72 hrs by agar well diffusion method; settings: read-out: DIZ
[34] = tested on: Fusarium oxysporum; assay: Antifungal activity against Fusarium oxysporum at 50 ug/ml after 72 hrs by agar well diffusion method; settings: read-out: DIZ
[35] = tested on: Fusarium oxysporum; assay: Antifungal activity against Fusarium oxysporum after 72 hrs by agar well diffusion method
[36] = tested on: Rhizoctonia solani; assay: Antifungal activity against Rhizoctonia solani after 72 hrs by agar well diffusion method
[37] = tested on: Aspergillus niger; assay: Antifungal activity against Aspergillus niger at 500 ug/ml after 72 hrs by agar well diffusion method; settings: read-out: DIZ
[38] = tested on: Escherichia coli; assay: Antibacterial activity against Escherichia coli ATCC 8739 at 500 ug/ml after 24 hrs by agar well diffusion method; settings: ATCC 8739, 24 h, read-out: DIZ
[39] = tested on: Aspergillus niger; assay: Antifungal activity against Aspergillus niger at 100 ug/ml after 72 hrs by agar well diffusion method; settings: read-out: DIZ
[40] = tested on: Staphylococcus aureus; assay: Antibacterial activity against Staphylococcus aureus ATCC 6538 at 200 ug/ml after 24 hrs by agar well diffusion method; settings: ATCC 6538, 24 h, read-out: DIZ
[41] = tested on: Fusarium oxysporum; assay: Antifungal activity against Fusarium oxysporum at 100 ug/ml after 72 hrs by agar well diffusion method; settings: read-out: DIZ
[42] = tested on: Aspergillus niger; assay: Antifungal activity against Aspergillus niger at 300 ug/ml after 72 hrs by agar well diffusion method; settings: read-out: DIZ
[43] = tested on: Klebsiella pneumoniae; assay: Antibacterial activity against Klebsiella pneumoniae at 100 ug/ml after 24 hrs by agar well diffusion method; settings: read-out: DIZ
[44] = tested on: Bacillus subtilis; assay: Antibacterial activity against Bacillus subtilis at 300 ug/ml after 24 hrs by agar well diffusion method; settings: read-out: DIZ
[45] = tested on: Klebsiella pneumoniae; assay: Antibacterial activity against Klebsiella pneumoniae at 200 ug/ml after 24 hrs by agar well diffusion method; settings: read-out: DIZ
[46] = tested on: Rhizoctonia solani; assay: Antifungal activity against Rhizoctonia solani at 300 ug/ml after 72 hrs by agar well diffusion method; settings: read-out: DIZ
[47] = tested on: Bacillus subtilis; assay: Antibacterial activity against Bacillus subtilis at 50 ug/ml after 24 hrs by agar well diffusion method; settings: read-out: DIZ
[48] = tested on: Escherichia coli; assay: Antibacterial activity against Escherichia coli ATCC 8739 at 50 ug/ml after 24 hrs by agar well diffusion method; settings: ATCC 8739, 24 h, read-out: DIZ

Compound: CC1(C)OC(=O)C(=Cc2c[nH]c3ccc([N+](=O)[O-])cc23)C(=O)O1
- zone of inhibition at 100 µg/mL [1]: 10 mm
- zone of inhibition at 50 µg/mL [2]: 8 mm
- MIC [3]: 20 µg/mL (≈ 63.2 µM)
- zone of inhibition at 500 µg/mL [4]: 31 mm
- zone of inhibition at 200 µg/mL [5]: 13 mm
- zone of inhibition at 50 µg/mL [6]: 5 mm
- zone of inhibition at 200 µg/mL [7]: 17 mm
- zone of inhibition at 200 µg/mL [8]: 15 mm
- zone of inhibition at 300 µg/mL [9]: 18 mm
- zone of inhibition at 50 µg/mL [10]: 11 mm
- MIC [11]: 10 µg/mL (≈ 31.6 µM)
- zone of inhibition at 500 µg/mL [12]: 34 mm
- MIC [13]: 35 µg/mL (≈ 111 µM)
- zone of inhibition at 100 µg/mL [14]: 11 mm
- zone of inhibition at 100 µg/mL [15]: 15 mm
- zone of inhibition at 500 µg/mL [16]: 32 mm
- zone of inhibition at 200 µg/mL [17]: 17 mm
- zone of inhibition at 50 µg/mL [18]: 10 mm
- zone of inhibition at 100 µg/mL [19]: 12 mm
- zone of inhibition at 500 µg/mL [20]: 24 mm
- zone of inhibition at 300 µg/mL [21]: 17 mm
- zone of inhibition at 100 µg/mL [22]: 15 mm
- zone of inhibition at 200 µg/mL [23]: 13 mm
- zone of inhibition at 300 µg/mL [24]: 25 mm
- MIC [25]: 20 µg/mL (≈ 63.2 µM)
- zone of inhibition at 50 µg/mL [26]: 7 mm
- MIC [27]: 30 µg/mL (≈ 94.9 µM)
- zone of inhibition at 500 µg/mL [28]: 28 mm
- zone of inhibition at 300 µg/mL [29]: 22 mm
- zone of inhibition at 500 µg/mL [30]: 24 mm
- zone of inhibition at 200 µg/mL [31]: 19 mm
- MIC [32]: 10 µg/mL (≈ 31.6 µM)
- zone of inhibition at 300 µg/mL [33]: 21 mm
- zone of inhibition at 50 µg/mL [34]: 10 mm
- MIC [35]: 25 µg/mL (≈ 79 µM)
- MIC [36]: 25 µg/mL (≈ 79 µM)
- zone of inhibition at 500 µg/mL [37]: 26 mm
- zone of inhibition at 500 µg/mL [38]: 33 mm
- zone of inhibition at 100 µg/mL [39]: 11 mm
- zone of inhibition at 200 µg/mL [40]: 15 mm
- zone of inhibition at 100 µg/mL [41]: 14 mm
- zone of inhibition at 300 µg/mL [42]: 19 mm
- zone of inhibition at 100 µg/mL [43]: 16 mm
- zone of inhibition at 300 µg/mL [44]: 16 mm
- zone of inhibition at 200 µg/mL [45]: 20 mm
- zone of inhibition at 300 µg/mL [46]: 24 mm
- zone of inhibition at 50 µg/mL [47]: 6 mm
- zone of inhibition at 50 µg/mL [48]: 10 mm
